# From paper PMC9090415, “Discovery of small molecule inhibitors of Plasmodium falciparum apicoplast DNA polymerase” (Journal of Enzyme Inhibition and Medicinal Chemistry, 2022)
# Biological target: P. falciparum apicoplast DNA polymerase (Pf-apPOL) (Plasmodium falciparum, UniProt Q8ILY1)
# Experiment: Fluorescence-based high-throughput DNA polymerase assay (molecular beacon), primary screen and dose-response;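 on % inhibition ApPOL 90': test concentration in µM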;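 on % inhibition apPOL 180': test concentration in µM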
# Assay type: biochemical
# Method in brief: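 Single-point screening used 10 µM compound with 20 nM polymerase, 20 nM hairpin substrate and 6 µM dNTPs for 90 min at 25 °C. Confirmatory titrations (2.5–80 µM) followed fluorescence at three times, and IC50 was derived from a fit including a cooperativity term n.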
# [1] = primary screen value of the 186 hits; unit not given; 90 min, 10 µM
# Chain of P. falciparum apicoplast DNA polymerase (Pf-apPOL) (Q8ILY1 entry or part of it): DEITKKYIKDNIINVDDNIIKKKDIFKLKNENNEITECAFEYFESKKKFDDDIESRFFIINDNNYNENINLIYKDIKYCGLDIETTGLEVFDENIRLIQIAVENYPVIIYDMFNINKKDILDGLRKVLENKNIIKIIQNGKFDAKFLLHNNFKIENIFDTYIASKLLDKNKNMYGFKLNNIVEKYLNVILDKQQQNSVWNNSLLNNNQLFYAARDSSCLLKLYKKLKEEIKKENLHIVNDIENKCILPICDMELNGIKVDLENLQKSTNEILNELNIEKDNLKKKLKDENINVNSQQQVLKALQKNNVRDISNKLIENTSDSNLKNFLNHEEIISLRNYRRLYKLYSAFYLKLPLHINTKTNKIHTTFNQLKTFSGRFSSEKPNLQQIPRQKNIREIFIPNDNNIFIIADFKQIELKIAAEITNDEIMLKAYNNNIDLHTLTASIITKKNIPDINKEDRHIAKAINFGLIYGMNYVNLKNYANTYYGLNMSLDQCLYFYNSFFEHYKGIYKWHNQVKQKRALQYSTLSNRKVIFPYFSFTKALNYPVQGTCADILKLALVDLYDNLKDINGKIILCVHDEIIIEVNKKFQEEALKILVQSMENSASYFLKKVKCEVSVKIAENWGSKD
smiles,measurement,setting,value
"O=C(Cn1ccc2c(=O)[nH]ccc21)Nc1cccc(Cl)c1 [Molecule 23, O=C(Cn1ccc2c1cc[nH]c2=O)Nc1cccc(c1)Cl]",% inhibition Apo pol 10',DRC-1; 10'; concentration 2.5,1.228%
same,% inhibition Apo pol 10',DRC-1; 10'; concentration 5,14.8384%
same,% inhibition Apo pol 10',DRC-1; 10'; concentration 10,62.4441%
same,% inhibition Apo pol 10',DRC-1; 10'; concentration 20,81.0439%
same,% inhibition Apo pol 10',DRC-1; 10'; concentration 40,80.7703%
same,% inhibition Apo pol 10',DRC-1; 10'; concentration 80,68.5193%
same,% inhibition Apol 90',DRC-1; 90'; concentration 2.5,-3.118%
same,% inhibition Apol 90',DRC-1; 90'; concentration 5,4.6922%
same,% inhibition Apol 90',DRC-1; 90'; concentration 10,48.8063%
same,% inhibition Apol 90',DRC-1; 90'; concentration 20,74.6886%
same,% inhibition Apol 90',DRC-1; 90'; concentration 40,82.985%
same,% inhibition Apol 90',DRC-1; 90'; concentration 80,79.3379%
same,% inhibition apPOL 180',DRC-1; 180'; concentration 2.5,-7.139%
same,% inhibition apPOL 180',DRC-1; 180'; concentration 5,-3.837%
same,% inhibition apPOL 180',DRC-1; 180'; concentration 10,31.8886%
same,% inhibition apPOL 180',DRC-1; 180'; concentration 20,62.9592%
same,% inhibition apPOL 180',DRC-1; 180'; concentration 40,80.4785%
same,% inhibition apPOL 180',DRC-1; 180'; concentration 80,82.7611%
same,% inhibition Apol 40',"DRC-2, 40', concentration 10 (unit not given)",63%
same,% inhibition Apol 40',"DRC-2, 40', concentration 20 (unit not given)",65%
same,% inhibition ApPOL 90',"DRC-2, 90', concentration 10 (unit not given)",63%
same,% inhibition ApPOL 90',"DRC-2, 90', concentration 80 (unit not given)",57%
same,% inhibition apPOL 180',"DRC-2, 180', concentration 10 (unit not given)",57%
same,% inhibition apPOL 180',"DRC-2, 180', concentration 80 (unit not given)",65%
same,% inhibition Apo pol 5',DRC-2; 5'; concentration 2.5,7%
same,% inhibition Apo pol 5',DRC-2; 5'; concentration 5,28%
same,% inhibition Apo pol 5',DRC-2; 5'; concentration 10,46%
same,% inhibition Apo pol 5',DRC-2; 5'; concentration 20,43%
same,% inhibition Apo pol 5',DRC-2; 5'; concentration 40,34%
same,% inhibition Apo pol 5',DRC-2; 5'; concentration 80,19%
same,% inhibition Apol 40',DRC-2; 40'; concentration 2.5,6%
same,% inhibition Apol 40',DRC-2; 40'; concentration 5,35%
same,% inhibition Apol 40',DRC-2; 40'; concentration 10,63%
same,% inhibition Apol 40',DRC-2; 40'; concentration 20,65%
same,% inhibition Apol 40',DRC-2; 40'; concentration 40,60%
same,% inhibition Apol 40',DRC-2; 40'; concentration 80,49%
same,% inhibition ApPOL 90',DRC-2; 90'; concentration 2.5,3%
same,% inhibition ApPOL 90',DRC-2; 90'; concentration 5,31%
same,% inhibition ApPOL 90',DRC-2; 90'; concentration 10,63%
same,% inhibition ApPOL 90',DRC-2; 90'; concentration 20,69%
same,% inhibition ApPOL 90',DRC-2; 90'; concentration 40,67%
same,% inhibition ApPOL 90',DRC-2; 90'; concentration 80,57%
same,% inhibition apPOL 180',DRC-2; 180'; concentration 2.5,-5%
same,% inhibition apPOL 180',DRC-2; 180'; concentration 5,18%
same,% inhibition apPOL 180',DRC-2; 180'; concentration 10,57%
same,% inhibition apPOL 180',DRC-2; 180'; concentration 20,71%
same,% inhibition apPOL 180',DRC-2; 180'; concentration 40,72%
same,% inhibition apPOL 180',DRC-2; 180'; concentration 80,65%
same,DNA Pol,[1],79
same,DNA Pol,"primary screen value, head ""DNA Pol"", unit not given; 90 min, 10 µM",79
O=C(Nc1nnc(-c2ccno2)o1)c1ccc2ncsc2c1 [Molecule 62],IC50,"supplemental file 2, sheet IC50 nontoxic compounds; Pf-apPOL",14.2 µM
"O=C(Cc1cccs1)N1CCN(c2nc(CN3CCOCC3)cs2)CC1 [Molecule 35, O=C(N1CCN(CC1)c1scc(n1)CN1CCOCC1)Cc1cccs1]",% inhibition Apo pol 10',DRC-1; concentration 2.5; 10',-2.34%
same,% inhibition Apol 90',DRC-1; concentration 2.5; 90',-6%
same,% inhibition apPOL 180',DRC-1; concentration 2.5; 180',-10%
same,% inhibition Apo pol 10',DRC-1; concentration 5; 10',14%
same,% inhibition Apol 90',DRC-1; concentration 5; 90',6.43%
same,% inhibition apPOL 180',DRC-1; concentration 5; 180',-2.23%
same,% inhibition Apo pol 10',DRC-1; concentration 10; 10',46%
same,% inhibition Apol 90',DRC-1; concentration 10; 90',34%
same,% inhibition apPOL 180',DRC-1; concentration 10; 180',19%
same,% inhibition Apo pol 10',DRC-1; concentration 20; 10',76%
same,% inhibition Apol 90',DRC-1; concentration 20; 90',68%
same,% inhibition apPOL 180',DRC-1; concentration 20; 180',53%
same,% inhibition Apo pol 10',DRC-1; concentration 40; 10',83%
same,% inhibition Apol 90',DRC-1; concentration 40; 90',83%
same,% inhibition apPOL 180',DRC-1; concentration 40; 180',81%
same,% inhibition Apo pol 10',DRC-1; concentration 80 (unit not given); 10',83%
same,% inhibition Apol 90',DRC-1; concentration 80; 90',86%
same,% inhibition apPOL 180',DRC-1; concentration 80; 180',88%
same,% inhibition Apo pol 5',DRC-2; 5'; concentration 2.5,8%
same,% inhibition Apo pol 5',DRC-2; 5'; concentration 5,19%
same,% inhibition Apo pol 5',DRC-2; 5'; concentration 10,35%
same,% inhibition Apo pol 5',DRC-2; 5'; concentration 40,46%
same,% inhibition Apo pol 5',DRC-2; 5'; concentration 80,35%
same,% inhibition ApPOL 90',DRC-2; 90'; concentration 2.5,8%
same,% inhibition ApPOL 90',DRC-2; 90'; concentration 40,69%
same,% inhibition apPOL 180',DRC-2; 180'; concentration 40,69%
same,% inhibition Apo pol 5',DRC-2; concentration 2.5; 5',8%
same,% inhibition Apol 40',DRC-2; concentration 2.5; 40',9%
same,% inhibition ApPOL 90',DRC-2; concentration 2.5; 90',8%
same,% inhibition apPOL 180',DRC-2; concentration 2.5; 180',1.49%
same,% inhibition Apo pol 5',DRC-2; concentration 5; 5',19%
same,% inhibition Apol 40',DRC-2; concentration 5; 40',22%
same,% inhibition ApPOL 90',DRC-2; concentration 5; 90',20%
same,% inhibition apPOL 180',DRC-2; concentration 5; 180',13%
same,% inhibition Apo pol 5',DRC-2; concentration 10; 5',35%
same,% inhibition Apol 40',DRC-2; concentration 10; 40',43%
same,% inhibition ApPOL 90',DRC-2; concentration 10; 90',41%
same,% inhibition apPOL 180',DRC-2; concentration 10; 180',31%
same,% inhibition Apo pol 5',DRC-2; concentration 20; 5',45%
same,% inhibition Apol 40',DRC-2; concentration 20; 40',61%
same,% inhibition ApPOL 90',DRC-2; concentration 20; 90',62%
same,% inhibition apPOL 180',DRC-2; concentration 20; 180',56%
same,% inhibition Apo pol 5',DRC-2; concentration 40; 5',46%
same,% inhibition Apol 40',DRC-2; concentration 40; 40',64%
same,% inhibition ApPOL 90',DRC-2; concentration 40; 90',69%
same,% inhibition apPOL 180',DRC-2; concentration 40; 180',69%
same,% inhibition Apo pol 5',DRC-2; concentration 80; 5',35%
same,% inhibition Apol 40',DRC-2; concentration 80; 40',59%
same,% inhibition ApPOL 90',DRC-2; concentration 80; 90',65%
same,% inhibition apPOL 180',DRC-2; concentration 80; 180',70%
same,% inhibition Apo pol 10',first dose-response set; 10'; concentration 10,46%
same,% inhibition Apo pol 10',first dose-response set; 10'; concentration 40,83%
same,% inhibition Apo pol 10',first dose-response set; 10'; concentration 80 (unit not given),83%
same,% inhibition Apol 90',first dose-response set; 90'; concentration 40,83%
same,% inhibition apPOL 180',first dose-response set; 180'; concentration 10,19%
same,DNA Pol,[1],37
same,DNA Pol,"primary screen value; head prints only 'DNA Pol'; 90 min, 10 µM",37
